Measured values from publication PMC8584244 (International Journal of Molecular Sciences, 2021).
Converted amounts (≈) assume the structure as drawn. Where two headings read alike, the source gives them in different places.

What was measured:
[1] = test system: H. pylori ATCC43504 planktonic and biofilm phenotypes; type: cell-based, Helicobacter pylori
[2] = test system: L. rhamnosus GG ATCC 53103; experiment: MIC and MBC by broth microdilution in MRSB; type: cell-based, Lactobacillus rhamnosus; conditions: Lacticaseibacillus rhamnosus
H. pylori [3] = conditions: Helicobacter pylori
H. pylori ATCC43504 = experiment: MIC and MBC by broth micro-dilution with alamarBlue; type: cell-based; conditions: Helicobacter pylori
Procedure: H. pylori colonies were collected and inoculated in Brucella Broth (BB; Oxoid Ltd., Hampshire, UK) added with 2% (v/v) of foetal bovine serum (FBS; Sigma Aldrich, Milan, Italy). […] Oxoid Ltd., Hampshire, UK). […] The MIC was determined by the broth micro-dilution method, following the guidelines of the Clinical and Laboratory Standards Institute. […] Carvacrol and thymol were resuspended in dimethyl sulfoxide (DMSO, Sigma-Aldrich, Milan, Italy) and were diluted in the liquid culture medium described above. […] The controls consisted of: (I) H. pylori broth culture; (II) BB plus 2% (v/v) of FBS, with the addition of the two CA inhibitors or amoxicillin at different concentrations; (III) just BB plus 2% (v/v) of FBS. Three independent experiments were performed in triplicate. The plates were then incubated at 37 °C for 72 h under microaerophilic conditions. […] AlamarBlue was added at 10% in each well, following the manufacturer instructions, and the plates were placed in an incubator for 4 h at 37 °C in microaerophilic conditions. After the incubation, the percentage of alamarBlue reduction of treated and untreated samples was determined, as previously described. The minimum bactericidal concentration (MBC) was determined by using the same wells stained with alamarBlue. Briefly, 100 μL of the bacterial suspensions, taken from the blue-violet wells, were seeded on the selected agar plates and incubated at 37 °C for 3–5 days in microaerophilic conditions.

L. reuteri DSM 17938 = experiment: MIC and MBC by broth microdilution in MRSB; type: cell-based, Lactobacillus reuteri; conditions: Limosilactobacillus reuteri
[4] = test system: H. pylori ATCC43504 biofilm; experiment: antibiofilm activity (alamarBlue, CFU count, crystal violet, Live/Dead fluorescence microscopy); type: cell-based, Helicobacter pylori; conditions: for CFU count of biofilm / inhibition of H. pylori biofilm development: sub-MIC (carvacrol, thymol 64 µg/mL; amoxicillin 0.016 µg/mL); for biofilm observed by fluorescence microscopy (Live/Dead): sub-MIC treated samples, 72 h of incubation
Procedure: The CA inhibitors and amoxicillin were diluted in liquid culture medium consisting of BB supplemented with 2% (v/v) of FBS and 0.3% (w/v) of glucose. […] The controls consisted of: […] The antibiofilm assay was performed in 96-well flat bottom microtiter plates (Eppendorf, Hamburg, Germany). The biofilm formation in the controls and treated samples was evaluated in 35 mm Petri dishes (Eppendorf, Hamburg, Germany) stained with Live/Dead staining and visualized by fluorescence microscope. Three independent experiments were performed in triplicate. The plates were incubated at 37 °C for 72 h under microaerophilic conditions. After 72 h of incubation, the minimum biofilm inhibitory concentration (MBIC) was determined through the alamarBlue assay, the CFU count, and the crystal violet (CV) assay (Sigma Aldrich, St. Louis, MO, USA). In detail, at the end of the incubation, the non-adherent cells, corresponding to the planktonic supernatant, were removed, and the biofilms were washed with 100 µL of DPBS (Sigma Aldrich, St. Louis, MO, USA). AlamarBlue was diluted to 10% in the selected culture medium, and 100 µL was added to each sample in the wells. The samples were incubated for 4 h at 37 °C in microaerophilic conditions, and subsequently the percentage of alamarBlue reduction was determined. The CFU count was carried out starting from the wells stained with alamarBlue. […] Serial dilutions of the stock were performed in DPBS, plated on the selected agar, and incubated at 37 °C under microaerophilic conditions for 3–5 days. The antibiofilm activity was also determined through crystal violet staining following the procedure indicated. Then, the absorbance at 590 nm was measured, and the percentage of biofilm biomass, normalized to the control, was determined. […] The biofilms developed in 35 mm Petri dishes were stained with Live/Dead™ BacLight™ Bacterial Viability Kit (Life Technologies Carlsbad, CA, USA) as previously reported and immediately visualized at the fluorescence microscope.

[5] = test system: L. acidophilus ATCC SD5214; experiment: MIC and MBC by broth microdilution in MRSB; type: cell-based; conditions: Lactobacillus acidophilus
H. pylori [6] = experiment: flow cytometry detection of cell viability (Live/Dead BacLight); conditions: sub-MIC treated samples, SYTO 9/propidium iodide
MgCA = MgCA (Malassezia globosa, UniProt A8Q1N3); experiment: stopped-flow CO2 hydrase assay, MgCA; type: biochemical
SmuCA = SmuCA (Streptococcus mutans, UniProt Q8DVY1); experiment: stopped-flow CO2 hydrase assay, SmuCA; type: biochemical
(UniProt Q9ZK30) = experiment: biochemical; set-up: species or system Helicobacter pylori; conditions: read-out: Ki HpCAα
[7] = test system: several reference and clinical H. pylori strains; set-up: method as in PMID 33228095, PMID 33805064; conditions: cited from earlier work
PgiCAβ = PgiCAβ (Porphyromonas gingivalis, UniProt B2RL07); experiment: stopped-flow CO2 hydrase assay, PgiCAβ; type: biochemical
AGS cells = test system: AGS cells; set-up: method as in PMID 33228095, PMID 33805064; conditions: read-out: IC50 against AGS cells; cited from earlier work
HpCAβ [8] = biological target: T1, HpCAβ (Helicobacter pylori, UniProt O24855); experiment: biochemical; conditions: mean from three assays, errors ±5–10%
T1 sequence (O24855 1-221): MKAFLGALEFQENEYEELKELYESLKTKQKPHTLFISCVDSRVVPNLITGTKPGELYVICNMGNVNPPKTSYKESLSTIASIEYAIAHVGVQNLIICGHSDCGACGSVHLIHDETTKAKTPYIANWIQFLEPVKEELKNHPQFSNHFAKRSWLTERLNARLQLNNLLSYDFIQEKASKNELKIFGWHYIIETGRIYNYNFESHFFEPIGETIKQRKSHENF

HpCAβ [9] = biological target: T1, HpCAβ; conditions: both HpCAs; cited from earlier work
[10] = test system: H. pylori ATCC43504/NCTC11637; conditions: characterisation of reference strain ATCC43504/NCTC11637; no reference given; cited from earlier work
hCA I = biological target: T2, hCA I (Homo sapiens, UniProt P00915); experiment: stopped-flow CO2 hydrase assay, hCA I; type: biochemical
T2 construct: made in house; host or cells: Escherichia coli (DE3)

hCA VI = biological target: T3, hCA VI (Homo sapiens, UniProt P23280); experiment: stopped-flow CO2 hydrase assay, hCA VI; type: biochemical
T3 construct: made in house; host or cells: Escherichia coli (DE3)

hCA II = biological target: T4, hCA II (Homo sapiens, UniProt P00918); experiment: stopped-flow CO2 hydrase assay, hCA II; type: biochemical
T4 construct: made in house; host or cells: Escherichia coli (DE3)

[11] = Planktonic T (treated with sub-MIC concentration)
[12] = biofilm phenotype, sub-MIC concentration
[13] = planktonic phenotype, sub-MIC concentration
[14] = ATCC53103, L. rhamnosus GG ATCC 53103, 24 h, anaerobic, read-out: MIC
[15] = ATCC53103, L. rhamnosus GG ATCC 53103, read-out: MBC
[16] = H. pylori ATCC43504, 72 h, microaerophilic, read-out: MIC
[17] = H. pylori ATCC43504, read-out: MBC
[18] = DSM17938, L. reuteri DSM 17938, 24 h, anaerobic, read-out: MIC
[19] = DSM17938, L. reuteri DSM 17938, read-out: MBC
[20] = ATCCSD5214, L. acidophilus ATCC SD5214, 24 h, anaerobic, read-out: MIC
[21] = ATCCSD5214, L. acidophilus ATCC SD5214, read-out: MBC

PgiCAβ, sequence (B2RL07 19-242): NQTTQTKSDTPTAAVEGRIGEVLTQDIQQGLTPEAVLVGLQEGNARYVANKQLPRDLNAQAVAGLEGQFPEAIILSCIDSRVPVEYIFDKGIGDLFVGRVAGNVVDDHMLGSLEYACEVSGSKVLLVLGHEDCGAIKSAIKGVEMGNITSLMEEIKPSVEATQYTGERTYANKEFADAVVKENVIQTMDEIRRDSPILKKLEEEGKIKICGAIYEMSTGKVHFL
MgCA, sequence (A8Q1N3 1-241): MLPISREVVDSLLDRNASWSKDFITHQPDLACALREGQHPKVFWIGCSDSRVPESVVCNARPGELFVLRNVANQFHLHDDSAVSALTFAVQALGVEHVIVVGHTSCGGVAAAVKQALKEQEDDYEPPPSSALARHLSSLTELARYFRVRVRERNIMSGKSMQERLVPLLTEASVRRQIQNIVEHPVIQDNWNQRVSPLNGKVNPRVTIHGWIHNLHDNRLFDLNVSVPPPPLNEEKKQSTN
SmuCA, sequence (Q8DVY1 1-166): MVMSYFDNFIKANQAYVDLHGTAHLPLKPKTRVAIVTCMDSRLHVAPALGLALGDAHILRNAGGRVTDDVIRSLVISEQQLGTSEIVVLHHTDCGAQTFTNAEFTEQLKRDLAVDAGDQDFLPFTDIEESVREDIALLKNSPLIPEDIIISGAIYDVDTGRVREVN
T3 sequence (P23280 18-308): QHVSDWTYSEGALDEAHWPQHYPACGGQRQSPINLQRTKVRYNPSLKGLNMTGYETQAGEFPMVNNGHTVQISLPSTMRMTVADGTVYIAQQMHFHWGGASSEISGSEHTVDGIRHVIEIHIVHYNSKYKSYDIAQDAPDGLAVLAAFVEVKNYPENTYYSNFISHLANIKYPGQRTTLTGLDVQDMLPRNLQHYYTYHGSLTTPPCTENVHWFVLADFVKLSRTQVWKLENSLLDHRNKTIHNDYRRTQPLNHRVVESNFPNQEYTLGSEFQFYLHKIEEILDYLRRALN
(UniProt Q9ZK30), sequence (Q9ZK30 19-247 limits assumed): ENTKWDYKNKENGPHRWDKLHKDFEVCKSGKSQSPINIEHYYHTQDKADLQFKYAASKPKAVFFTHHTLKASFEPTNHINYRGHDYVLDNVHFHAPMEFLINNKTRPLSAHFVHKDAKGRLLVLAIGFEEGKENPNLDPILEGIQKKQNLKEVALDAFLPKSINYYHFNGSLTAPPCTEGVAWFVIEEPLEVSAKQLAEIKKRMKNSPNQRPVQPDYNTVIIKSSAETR
T2 sequence (P00915 whole entry): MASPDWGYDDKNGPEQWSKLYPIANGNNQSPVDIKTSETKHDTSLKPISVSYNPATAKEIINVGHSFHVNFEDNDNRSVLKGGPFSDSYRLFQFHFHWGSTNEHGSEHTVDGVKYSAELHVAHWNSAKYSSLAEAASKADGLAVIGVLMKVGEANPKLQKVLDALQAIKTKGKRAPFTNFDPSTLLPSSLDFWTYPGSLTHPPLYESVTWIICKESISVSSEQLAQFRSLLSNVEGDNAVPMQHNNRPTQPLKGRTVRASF

Row | SMILES | % OMV eDNA+/Total OMVs [1, 11] [%] | pOMV eDNA+ count versus untreated [1, 13] | total pOMVs count versus untreated [1, 13] | MIC [2, 14] [µg/mL] | MBC [2, 15] [µg/mL] | viability (flow cytometry) (H. pylori [3]) | MIC (H. pylori ATCC43504; [16]) [µg/mL] | MBC (H. pylori ATCC43504; [17]) [µg/mL] | MIC (L. reuteri DSM 17938; [18]) [µg/mL] | MBC (L. reuteri DSM 17938; [19]) [µg/mL] | CFU count of biofilm ([4]; 72 h) | inhibition of H. pylori biofilm development ([4]; 72 h) | biofilm observed by fluorescence microscopy (Live/Dead) [4] | MIC [5, 20] [µg/mL] | MBC [5, 21] [µg/mL] | live cells (flow cytometry) (H. pylori [6]) | Ki (MgCA) [µM] | Ki (SmuCA) [µM] | MIC range [7] [µg/mL] | Ki (PgiCAβ) [µM] | other results
1 | CC1(C)S[C@@H]2[C@H](NC(=O)[C@H](N)c3ccc(O)cc3)C(=O)N2[C@H]1C(=O)O [amoxicillin, reference compound] | 16.52 | decrease | decrease | 1 (≈ 2.74 µM) | 1 (≈ 2.74 µM) | around 64% | 0.032 (≈ 0.0876 µM) | 0.032 (≈ 0.0876 µM) | 16 (≈ 43.8 µM) | 64 (≈ 175 µM) | 1.92 × 10^7 CFUs | did not inhibit H. pylori biofilm formation | well-structured biofilm with some dead cells | 0.25 (≈ 0.684 µM) | 0.25 (≈ 0.684 µM) | 3.18 × 10^6 live cells/mL | – | – | – | – | % OMV eDNA+/Total OMVs ([1]; Biofilm T (treated with sub-MIC concentration)): 36.09%; bOMV eDNA+ versus untreated [1, 12]: no differences; total bOMVs versus untreated [1, 12]: no differences
2 | Cc1ccc(C(C)C)cc1O [carvacrol] | 32.53 | – | – | – | – | – | – | – | – | – | No CFUs were observed | ability to inhibit the development of the H. pylori mature biofilm | no biofilm formation | – | – | 3.80 × 10^4 live cells/mL | 6.8 | 86.6 | 16 to 64 | 28 | pOMV eDNA+ count versus untreated [1]: no differences were found; total pOMVs count versus untreated [1]: lower count; MBC ([2]; ATCC53103): > 16000 µg/mL; MIC ([2]; ATCC53103, 24 h): > 16000 µg/mL; MBC (H. pylori ATCC43504; ATCC43504): 256 µg/mL (≈ 1700 µM); MIC (H. pylori ATCC43504; ATCC43504, 72 h): 128 µg/mL (≈ 852 µM); MBC (L. reuteri DSM 17938; DSM17938): > 8000 µg/mL; MIC (L. reuteri DSM 17938; DSM17938): 8000 µg/mL (≈ 53300 µM); MIC (L. reuteri DSM 17938; DSM17938, 24 h): 8000 µg/mL (≈ 53300 µM); biofilm biomass percentage (crystal violet) versus untreated samples [4]: significantly lower; percentage of alamarBlue reduction in respect to the corresponding controls [4]: about 80%; MBC ([5]; ATCCSD5214): > 16000 µg/mL; MIC ([5]; ATCCSD5214, 24 h): > 16000 µg/mL; viability (flow cytometry) (H. pylori [6]): 35%; Ki ((UniProt Q9ZK30)): 8.4 µM; IC50 (AGS cells): 300 ± 6.5 µM; Ki (HpCAβ [8]): 13.3 µM
3 | NC(N)=Nc1nc(CSCCC(N)=NS(N)(=O)=O)cs1 [famotidine] | – | – | – | – | – | – | – | – | – | – | – | – | – | – | – | – | – | – | – | – | inhibitory profile toward HpCAβ (HpCAβ [9]): nanomolar range
4 | Cc1ncc([N+](=O)[O-])n1CCO [metronidazole] | – | – | – | – | – | – | – | – | – | – | – | – | – | – | – | – | – | – | – | – | MIC range [10]: 64 to 256 µg/mL
5 | Cc1ccc(C(C)C)c(O)c1 [thymol] | 35.47 | significative difference | significative difference | > 16000 | > 16000 | around 32% | 128 (≈ 852 µM) | 256 (≈ 1700 µM) | 4000 (≈ 26600 µM) | > 4000 | No CFUs were observed | ability to inhibit the development of the H. pylori mature biofilm | no biofilm formation | > 16000 | > 16000 | 3.00 × 10^5 live cells/mL | > 100 | 84.9 | 64 to 128 | 48.9 | Ki (hCA I): > 100 µM; MIC (L. reuteri DSM 17938; DSM17938, L. reuteri DSM 17938, text, read-out: MIC): 4000 µg/mL (≈ 26600 µM); biofilm biomass percentage (crystal violet) versus untreated samples ([4]; sub-MIC 64 µg/mL, 72 h): significantly lower; percentage of alamarBlue reduction in respect to the corresponding controls ([4]; sub-MIC 64 µg/mL, biofilm, 72 h): ~85%; IC50 (AGS cells): 200 ± 6.5 µM; Ki (hCA VI): > 100 µM; Ki (hCA II): > 100 µM; Ki (HpCAβ [8]): 3.4 µM
